Laboratory results published in US20060229209A1, “Copolymers based on n-vinylamide as adjuvants and agents for using in the agrotechnical field” (priority 2002, published 2006).

Test system: Puccinia recondita
Experiment: Improvement in the fungicidal activity: wheat leaves inoculated with Puccinia recondita, sprayed with fungicide plus test additive, visual assessment of infestation
Assay type: in vivo, Puccinia recondita on wheat variety "Kanzler"
Conditions: no test additive, 8 days in greenhouse after spraying
Experimental: Both of the leaves which developed first of wheat seeds of the variety “Kanzler”, which were raised in pots, were dusted with spores of Puccinia recondita. In order to guarantee the success of the artificial inoculation, the plants were kept for 24 hours in a humidity chamber without light at a relative humidity of 95 to 99% and a temperature of 20 to 22° C. The next day, the plants were sprayed with an aqueous suspension comprising fungicide at the concentration given below as a mixture with water and 125 ppm of the test additive. The plants were allowed to dry in the air. The experimental plants were subsequently cultivated in a greenhouse for 8 days at a temperature of 22 to 26° C. and a relative humidity of between 40 and 80%. The extent of the fungal infestation on the leaves was assessed visually and expressed as a percentage of the affected leaf area with respect to the unaffected leaf area.

Row | Structure (SMILES) | % affected leaf area (Epoxiconazole 0.125 ppm a.c.) [%] | % affected leaf area (Epoxiconazole 0.25 ppm a.c.) [%] | % affected leaf area (Pyraclostrobin 1 ppm a.c.) [%] | % affected leaf area (Pyraclostrobin 2 ppm a.c.) [%]
1 | Fc1ccc([C@]2(Cn3cncn3)O[C@H]2c2ccccc2Cl)cc1 (racemic) [Epoxiconazole, epoxiconazole] | 53 | 47 |  | 
2 | COC(=O)N(OC)c1ccccc1COc1ccn(-c2ccc(Cl)cc2)n1 [Pyraclostrobin, pyraclostrobin] |  |  | 32 | 13
